Reference: patent US20160310454A1, “LIVER X RECEPTOR AGONISTS IN THE TREATMENT OF EMPHYSEMA” (priority 2013, published 2016)
Entries after “also recorded” stand apart in the source; their conditions may differ.

Tests used:
[1] = system: murine disease models of atherosclerosis; details: mouse, in vivo; cited from earlier work
[2] = system: mice exposed to cigarette smoke for 10 days; experiment: Acute 10 day cigarette smoke exposure model with LXR agonist IP; type: in vivo, mouse
Procedure: Mice were chronically exposed to smoke in a specially designed chamber (Teague Enterprise, CA). 8 weeks old mice were smoke-exposed for 5 hours a day, 5 days a week for 10 days and 5 months. The total particulate matter (TPM) within the smoking chamber was regulated so that the mice receive a TPM of 100 mg/m^3. TPM was determined by a gravimetric analysis of filter samples taken during the exposure period. Mice (C57BL/6, AKR/J strain) were smoke exposed for 10 days and 5 months and compared to room air exposed controls.
The BAL fluid was collected by perfusing the lungs with 2 ml of phosphate buffered saline (PBS). The samples were then centrifuged to pellet down the cells and re-suspended in 300 μl of PBS. To obtain the total cell count, cells were counted using a hematocytometer for which, 10 μl of the sample was utilized. To obtain the differential cell count, the slides were prepared using a cytopsin. 150 μl of sample was taken to prepare slides. These slides were stained using Hematoxylin and Eosin (H&E) and a number of regular and foamy like macrophages and lymphocytes counted under the microscope. A foamy like phenotype (Hirama et al., 2007) was identified by examining the sequential increase in macrophage size. Lipid staining was not performed.
Total RNA was extracted from specimens of lung tissue 0.3 cm^3 in size with the use of the RNeasy kit (Qiagen, Germantown, Md.) (Goldklang et al., 2012). The RNA was then further processed to obtain cDNA, which was used for Real Time (RT) PCR analysis. TaqMan gene expression assays (Applied Biosystems, Carlsbad, Calif.) were performed to assess gene-transcript levels with the use of an ABI Prism 7900HT Sequence Detection System (Applera, Foster City, Calif.) (Goldklang et al., 2012). The following primers were used to check the respective gene expression: ABCA1 (Hs01059118_m1), ABCG1 (Hs00245154_m1), MMP-9 (Mm00442991_m1), IL-1β (Mm00434227_g1), TNF-α (Mm00443260_g1) and GAPDH (4352932E) from TaqMan Gene Expression Assays, Applied Biosystems, CA. β-actin was used as a control since it is a housekeeping gene.
To determine if the mechanisms identified in vitro contributed to changes in smoke induced lung inflammation in vivo, cigarette smoke studies were performed in mice. The treatment of mice exposed to cigarette smoke in an acute 10 day model with 25 mg/kg of intraperitoneal (IP) injections of an LXR agonist daily during the last 4 days of exposure was examined. […] Treatment with the LXR agonist was capable of blocking the already established inflammation and decreased the total inflammatory cell counts (FIG. 15A.). Furthermore, the cigarette smoke induced TNFα protein expression in the BAL was abrogated in mice treated with the LXR agonist (FIG. 15B.). […] Most importantly, cigarette smoke induced MMP-9 expression and activity in the BAL were inhibited by the treatment with the LXR agonist (FIG. 15C-D.), which correlated with inhibition of inflammation and the inflammatory driven increase in TNFα.

[3] = 25 mg/kg IP, 10 days smoke exposure, Luminex
[4] = 25 mg/kg IP, 10 days smoke exposure, listed as LXR agonist

O=S(=O)(c1ccccc1)N(CC(F)(F)F)c1ccc(C(O)(C(F)(F)F)C(F)(F)F)cc1 [T0901317, N-(2,2,2-trifluoroethyl)-N-[4-[2,2,2-trifluoro-1-hydroxy-1-(trifluoromethyl)ethyl]phenyl]-benzenesulfonamide]
cholesterol level in serum and liver [1]: lowers
development of atherosclerosis [1]: inhibits
level of ABCA1 in BAL (alveolar macrophages) ([2]; 25 mg/kg IP daily, last 4 days of 10 day smoke exposure, listed as LXR agonist): re-expression; also recorded: successfully increased
pulmonary inflammation: total inflammatory cell counts in BAL ([2]; 25 mg/kg IP, 10 days smoke exposure): resolve
cigarette smoke induced TNFα protein expression in the BAL [2, 3]: abrogated
smoke induced increase in IL-1β, IL-17, IFNγ and MCP-1 in the lung tissue [2, 3]: inhibited
cigarette smoke induced MMP-9 expression and activity in the BAL [2, 4]: inhibition; also recorded: inhibited
mRNA levels of TNFα in BAL alveolar macrophages [2, 4]: inhibition; also recorded: decreased
pulmonary inflammation: total inflammatory cell counts in BAL [2, 4]: significantly blocked; also recorded: decreased
